Drawing on patent US10968215B2 (SHANGHAI HAIHE PHARMACEUTICAL CO., LTD., priority 2016, dated 2021), this text covers IC50 for 22 molecules.

In the first assay the target is PRC2 complex (EZH2 Y641F/EED/SUZ12/RbAp48/AEBP2) (Homo sapiens (Human), UniProt Q15910, Y641F). Kind of assay: Activity of a compound to PRC2 complex (EZH2 Y641F), HTRF.
Chain of PRC2 complex (EZH2 Y641F/EED/SUZ12/RbAp48/AEBP2) (Q15910 whole entry Y641F): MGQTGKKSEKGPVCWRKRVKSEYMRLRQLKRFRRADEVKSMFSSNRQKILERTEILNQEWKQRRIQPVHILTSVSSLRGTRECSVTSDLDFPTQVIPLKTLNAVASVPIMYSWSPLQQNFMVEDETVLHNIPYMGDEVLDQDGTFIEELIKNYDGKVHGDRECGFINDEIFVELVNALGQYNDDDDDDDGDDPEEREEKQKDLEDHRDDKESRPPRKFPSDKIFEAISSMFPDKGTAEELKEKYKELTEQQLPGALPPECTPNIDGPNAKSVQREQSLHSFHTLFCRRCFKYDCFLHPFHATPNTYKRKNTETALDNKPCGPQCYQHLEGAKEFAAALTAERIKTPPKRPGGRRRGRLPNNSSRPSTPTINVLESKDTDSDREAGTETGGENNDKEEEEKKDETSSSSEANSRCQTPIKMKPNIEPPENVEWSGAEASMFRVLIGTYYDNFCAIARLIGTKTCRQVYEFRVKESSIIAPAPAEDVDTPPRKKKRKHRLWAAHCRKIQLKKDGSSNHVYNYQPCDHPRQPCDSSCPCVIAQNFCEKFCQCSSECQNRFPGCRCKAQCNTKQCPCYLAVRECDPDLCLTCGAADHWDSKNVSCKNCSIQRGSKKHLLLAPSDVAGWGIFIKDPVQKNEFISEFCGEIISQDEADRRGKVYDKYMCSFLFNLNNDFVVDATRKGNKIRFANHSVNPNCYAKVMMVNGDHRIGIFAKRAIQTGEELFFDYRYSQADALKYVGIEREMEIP
Chain of PRC2 complex (EZH2 Y641F/EED/SUZ12/RbAp48/AEBP2) (O75530 whole entry partner): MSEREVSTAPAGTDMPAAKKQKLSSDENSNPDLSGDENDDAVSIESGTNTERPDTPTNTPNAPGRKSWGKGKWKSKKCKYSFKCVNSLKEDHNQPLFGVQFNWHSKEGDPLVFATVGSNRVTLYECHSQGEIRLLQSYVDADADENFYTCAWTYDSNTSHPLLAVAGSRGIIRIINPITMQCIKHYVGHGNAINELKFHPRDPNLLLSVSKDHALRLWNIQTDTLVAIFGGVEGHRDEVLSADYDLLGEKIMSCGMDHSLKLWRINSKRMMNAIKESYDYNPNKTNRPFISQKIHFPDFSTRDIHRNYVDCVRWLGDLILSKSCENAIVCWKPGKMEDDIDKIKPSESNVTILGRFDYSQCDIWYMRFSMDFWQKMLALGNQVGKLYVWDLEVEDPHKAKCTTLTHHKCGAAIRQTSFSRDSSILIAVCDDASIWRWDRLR
Chain of PRC2 complex (EZH2 Y641F/EED/SUZ12/RbAp48/AEBP2) (Q15022 whole entry partner): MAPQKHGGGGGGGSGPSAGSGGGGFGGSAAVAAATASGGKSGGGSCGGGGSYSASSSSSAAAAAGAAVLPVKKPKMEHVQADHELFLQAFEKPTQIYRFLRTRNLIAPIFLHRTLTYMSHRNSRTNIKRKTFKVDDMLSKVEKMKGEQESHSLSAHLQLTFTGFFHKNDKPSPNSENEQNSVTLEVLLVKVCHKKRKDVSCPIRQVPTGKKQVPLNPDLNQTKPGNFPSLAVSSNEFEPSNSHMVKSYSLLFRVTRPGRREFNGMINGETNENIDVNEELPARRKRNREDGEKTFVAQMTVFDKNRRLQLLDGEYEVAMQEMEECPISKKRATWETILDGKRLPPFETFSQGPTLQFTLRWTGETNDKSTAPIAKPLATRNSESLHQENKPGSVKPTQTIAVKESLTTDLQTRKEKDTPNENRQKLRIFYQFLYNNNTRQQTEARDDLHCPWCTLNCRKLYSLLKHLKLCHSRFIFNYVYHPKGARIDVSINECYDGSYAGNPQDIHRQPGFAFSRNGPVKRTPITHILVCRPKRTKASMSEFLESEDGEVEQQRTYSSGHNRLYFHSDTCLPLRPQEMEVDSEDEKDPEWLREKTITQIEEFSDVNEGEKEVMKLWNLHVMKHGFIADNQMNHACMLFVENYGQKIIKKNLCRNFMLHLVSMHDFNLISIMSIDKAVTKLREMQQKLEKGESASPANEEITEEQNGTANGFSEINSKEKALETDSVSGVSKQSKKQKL
Chain of PRC2 complex (EZH2 Y641F/EED/SUZ12/RbAp48/AEBP2) (Q09028 whole entry partner): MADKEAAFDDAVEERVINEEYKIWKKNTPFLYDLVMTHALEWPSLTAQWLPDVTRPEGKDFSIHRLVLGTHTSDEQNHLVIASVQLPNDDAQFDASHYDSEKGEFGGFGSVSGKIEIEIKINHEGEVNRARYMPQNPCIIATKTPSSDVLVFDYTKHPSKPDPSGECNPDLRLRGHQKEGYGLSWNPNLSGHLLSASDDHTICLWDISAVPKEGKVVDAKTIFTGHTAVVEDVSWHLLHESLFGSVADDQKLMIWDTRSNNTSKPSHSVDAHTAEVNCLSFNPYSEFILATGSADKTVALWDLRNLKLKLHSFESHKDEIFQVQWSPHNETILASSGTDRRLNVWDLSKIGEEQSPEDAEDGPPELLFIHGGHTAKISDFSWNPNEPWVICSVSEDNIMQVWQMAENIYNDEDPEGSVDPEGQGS
Chain of PRC2 complex (EZH2 Y641F/EED/SUZ12/RbAp48/AEBP2) (Q6ZN18 whole entry partner): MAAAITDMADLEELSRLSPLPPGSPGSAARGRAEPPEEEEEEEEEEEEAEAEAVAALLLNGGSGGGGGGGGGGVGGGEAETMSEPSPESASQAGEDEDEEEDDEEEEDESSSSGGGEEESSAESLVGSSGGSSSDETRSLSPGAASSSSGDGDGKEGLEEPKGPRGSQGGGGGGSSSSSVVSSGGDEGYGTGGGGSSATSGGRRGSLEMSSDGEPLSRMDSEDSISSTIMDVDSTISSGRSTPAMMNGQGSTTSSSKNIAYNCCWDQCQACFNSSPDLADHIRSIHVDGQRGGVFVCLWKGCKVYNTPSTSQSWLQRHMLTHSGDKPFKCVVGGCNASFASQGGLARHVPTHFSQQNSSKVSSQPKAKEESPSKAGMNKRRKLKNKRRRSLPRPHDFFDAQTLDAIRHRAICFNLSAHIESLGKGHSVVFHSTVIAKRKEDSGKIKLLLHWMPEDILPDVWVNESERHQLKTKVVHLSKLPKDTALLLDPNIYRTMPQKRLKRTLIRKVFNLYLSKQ
Conditions: not given
For `Cc1[nH]c(=O)c(CNC(=O)c2cc3c(-c4ccc(N)nc4)ccn3c(C(C)N3CCN(CC(F)(F)F)CC3)c2C)c2c1CN(CC(C)C)CC2` (stereo not shown) [Compound 188, 1-(6-aminopyridin-3-yl)-N-((7-isobutyl-1-methyl-3-oxo-2,3,5,6,7,8-hexahydro-2,7-naphthyridin-4-yl)methyl)-6-methyl-5-(1-(4-(2,2,2-trifluoroethyl)piperazin-1-yl)ethyl)indolizine-7-carboxamide], the IC50 was 0.1 to 1 µM. Take `COc1ccc(-c2ccn3c(C(C)N4CCOCC4)c(C)c(C(=O)NCc4c(C)cc(C)[nH]c4=O)cc23)cc1` (stereo not shown) [Example 121, N-((4,6-dimethyl-2-oxo-1,2-dihydropyridin-3-yl)methyl)-6-methyl-5-(1-morpholinylethyl)-1-(4-methoxyphenyl)indolizine-7-carboxamide]: the IC50 fell in the range of 0.1 to 1 µM. Molecule `Cc1cc(C)c(CNC(=O)c2cc3cc(-c4cc5c(s4)CCNC5)cn3c(C(C)N3CCOCC3)c2C)c(=O)[nH]1` (stereo not shown) [Example 115, N-((4,6-dimethyl-2-oxo-1,2-dihydropyridin-3-yl)methyl)-6-methyl-5-(1-morpholinoethyl)-2-(4,5,6,7-tetrahydrothieno[3,2-c]pyridin-2-yl)indolizine-7-carboxamide] displayed an IC50 below 0.1 µM.

The same assay, now with this note: read-out: IC50 (EZH2_Y641F); EZH2 Y641F PRC2 complex, HTRF; class symbols.
On to `Cc1cc(C)c(CNC(=O)c2cc3cc(-c4nccs4)cn3c(C(C)N3CCOCC3)c2C)c(=O)[nH]1` (stereo not shown) [Example 50, N-((4,6-dimethyl-2-oxo-1,2-dihydropyridin-3-yl)methyl)-6-methyl-5-(1-morphinolinylethyl)-2-(thiazol-2-yl)indolizine-7-carboxamide], for which the IC50 is below 0.1 µM. Regarding `Cc1cc(C)c(CNC(=O)c2cc3cc(-c4ccc(N)nc4)cn3c(C(C)N3CCOCC3)c2C)c(=O)[nH]1` (stereo not shown) [Example 89, 2-(6-aminopyridin-3-yl)-N-((4,6-dimethyl-2-oxo-1,2-dihydropyridin-3-yl)methyl)-6-methyl-5-(1-morpholinylethyl)indolizine-7-amide], the IC50 is below 0.1 µM. For `COc1cc(C)[nH]c(=O)c1CNC(=O)c1cc2c(-c3ccc(C)nn3)ccn2c([C@H](C)N2CCN(CC(F)(F)F)CC2)c1C` (single isomer, unassigned) [Compound 200, (S)—N-((4-methoxy-6-methyl-2-oxo-1,2-dihydropyridin-3-yl)methyl)-6-methyl-1-(6-methylpyridazin-3-yl)-5-(1-(4-(2,2,2-trifluoroethyl)piperazin-1-yl)ethyl)indolizine-7-formamide or (R)—N-((4-methoxy-6-methyl-2-oxo-1,2-dihydropyridin-3-yl)methyl)-6-methyl-1-(6-methylpyridazin-3-yl)-5-(1-(4-(2,2,2-trifluoroethyl)piperazin-1-yl)ethyl)indolizine-7-formamide], the IC50 was below 0.1 µM.

In the case of `Cc1cc(C)c(CNC(=O)c2cc3cc(-c4cccc(N5CCOCC5)c4)cn3c(C(C)N3CCOCC3)c2C)c(=O)[nH]1` (stereo not shown) [Example 36, N-((4,6-dimethyl-2-oxo-1,2-dihydropyridin-3-yl)methyl)-6-methyl-5-(1-morphinolinylethyl)-2-(3-morphinolinylphenyl)indolizine-7-carboxamide], the IC50 is below 0.1 µM. Same read-out and setting: the value for `COc1cc(C)[nH]c(=O)c1CNC(=O)c1cc2c(-c3ccc(C)nc3C)ccn2c([C@H](C)N2CCN(CC(F)(F)F)CC2)c1C` (single isomer, unassigned) [Compound 177, (S)-1-(2,6-dimethylpyridin-3-yl)-N-((4-methoxy-6-methyl-2-oxo-1,2-dihydropyridine-3-yl)methyl)-6-methyl-5-(1-(4-(2,2,2-trifluoroethyl)piperazin-1-yl)ethyl)indolizine-7-carboxamide or (R) 1-(2,6-dimethylpyridin-3-yl)-N-((4-methoxy-6-methyl-2-oxo-1,2-dihydropyridine-3-yl)methyl)-6-methyl-5-(1-(4-(2,2,2-trifluoroethyl)piperazin-1-yl)ethyl)indolizine-7-carboxamide] was below 0.1 µM. For `Cc1cc(C)c(CNC(=O)c2cc3cc(-c4ccc(CN5CCOCC5)cc4)cn3c(C(C)N3CCOCC3)c2C)c(=O)[nH]1` (stereo not shown) [Example 39, N-((4,6-dimethyl-2-oxo-1,2-dihydropyridin-3-yl)methyl)-6-methyl-5-(1-morphinolinylethyl)-2-(4-(morphinolinylmethyl)phenyl)indolizine-7-carboxamide], the IC50 was below 0.1 µM.

With `COc1cc(-c2ccn3c([C@H](C)N4CCN(CC(F)(F)F)CC4)c(C)c(C(=O)NCc4c(OC)cc(C)[nH]c4=O)cc23)ccn1` (single isomer, unassigned) [Compound 195, (S)—N-((4-methoxy-6-methyl-2-oxo-1,2-dihydropyridin-3-yl)methyl)-1-(2-methoxypyridin-4-yl)-6-methyl-5-(1-(4-(2,2,2-trifluoroethyl)piperazin-1-yl)ethyl)indolizine-7-carboxamide or (R)—N-((4-methoxy-6-methyl-2-oxo-1,2-dihydropyridin-3-yl)methyl)-1-(2-methoxypyridin-4-yl)-6-methyl-5-(1-(4-(2,2,2-trifluoroethyl)piperazin-1-yl)ethyl)indolizine-7-carboxamide], the IC50 is 0.1 to 1 µM.

Take `COc1ccc(F)c(-c2cc3cc(C(=O)NCc4c(C)cc(C)[nH]c4=O)c(C)c(C(C)N4CCOCC4)n3c2)c1` (stereo not shown) [Example 124, N-((4,6-dimethyl-2-oxo-1,2-dihydropyridin-3-yl)methyl)-2-(2-fluoro-5-methoxyphenyl)-6-methyl-5-(1-morpholinoethyl)indolizine-7-carboxamide]: the IC50 fell in the range of 0.1 to 1 µM. As for `Cc1cc(C)c(CNC(=O)c2cc3cc(-c4cccnc4)cn3c(C(C)N3CCOCC3)c2C)c(=O)[nH]1` (stereo not shown) [Example 33, N-((4,6-dimethyl-2-oxo-1,2-dihydropyridin-3-yl)methyl)-6-methyl-5-(1-morphinolinylethyl)-2-(pyridin-3-yl)indolizine-7-carboxamide], the concentration for half-maximal inhibition (IC50) was below 0.1 µM. Turning to `CCN1CCN(C(C)c2c(C)c(C(=O)NCc3c(C)cc(C)[nH]c3=O)cc3cc(Br)cn23)CC1` (stereo not shown) [Example 99, N-((4,6-dimethyl-2-oxo-1,2-dihydropyridin-3-yl)methyl)-6-methyl-5-(1-(4-ethylpiperazine)-1-ethyl)-2-bromoindolizine-7-carboxamide], the IC50 lay within 0.1 to 1 µM. Still for that read-out and setting: the value for `COc1cc(C)[nH]c(=O)c1CNC(=O)c1cc2c(-c3ccnc(N(C)C)c3)ccn2c([C@H](C)N2CCN(CC(F)(F)F)CC2)c1C` (single isomer, unassigned) [Compound 171, (S)-1-(2-(dimethylamino)pyridin-4-yl)-N-((4-methoxy-6-methyl-2-oxo-1,2-dihydropyridine-3-yl)methyl)-6-methyl-5-(1-(4-(2,2,2-trifluoroethyl)piperazin-1-yl)ethyl)indolizine-7-carboxamide or (R) 1-(2-(dimethylamino)pyridin-4-yl)-N-((4-methoxy-6-methyl-2-oxo-1,2-dihydropyridine-3-yl)methyl)-6-methyl-5-(1-(4-(2,2,2-trifluoroethyl)piperazin-1-yl)ethyl)indolizine-7-carboxamide] was below 0.1 µM. On to `Cc1cc(C)c(CNC(=O)c2cc3cc(C4CCNCC4)cn3c(C(C)N3CCOCC3)c2C)c(=O)[nH]1` (stereo not shown) [Example 46, N-((4,6-dimethyl-2-oxo-1,2-dihydropyridin-3-yl)methyl)-6-methyl-5-(1-morphinolinylethyl)-2-(piperidin-4-yl)indolizine-7-carboxamide], for which the IC50 was below 0.1 µM. Consider `Cc1cc(C)c(CNC(=O)c2cc3cc(-c4cc5c(s4)CCNC5)cn3c(C(C)N3CCOCC3)c2C)c(=O)[nH]1` (stereo not shown) [Example 114, N-((4,6-dimethyl-2-oxo-1,2-dihydropyridin-3-yl)methyl)-6-methyl-5-(1-morpholinoethyl)-2-(4,5,6,7-tetrahydro[2,3-c]pyridin-2-yl)indolizine-7-carboxamide], for which the IC50 was 0.1 to 1 µM.

On to `Cc1cc(C)c(CNC(=O)c2cc3cc(C4=CCNCC4)cn3c(C(C)N3CCOCC3)c2C)c(=O)[nH]1` (stereo not shown) [Example 45, N-((4,6-dimethyl-2-oxo-1,2-dihydropyridin-3-yl)methyl)-6-methyl-5-(1-morphinolinylethyl)-2-(1,2,3,6-tetrahydropyridin-4-yl)indolizine-7-carboxamide], for which the concentration for half-maximal inhibition (IC50) lay in the range of 1 to 10 µM.

As to `CCN(c1c(C)c(C(=O)NCc2c(C)cc(C)[nH]c2=O)cc2cc(Br)cn12)C1CNC1` [Example 59], the IC50 lay in the range of 1 to 10 µM. The same measure, in the same setting: the value for `Cc1cc(C)c(CNC(=O)c2cc3c(Cl)ccn3c(C(C)N3CCOCC3)c2C)c(=O)[nH]1` (stereo not shown) [Example 27, 1-chloro-N-((4,6-dimethyl-2-oxo-1,2-dihydropyridin-3-yl)methyl)-6-methyl-5-(1-morphinolinylethyl)indolizine-7-carboxamide] was below 0.1 µM; that for `Cc1cc(C)c(CNC(=O)c2cc3cccn3c(C(C)OCc3cccs3)c2C)c(=O)[nH]1` (stereo not shown) [Example 17, N-((4,6-dimethyl-2-oxo-1,2-dihydropyridin-3-yl)methyl)-6-methyl-5-(1-(thiophene-2-ylmethoxy)ethyl)indolizine-7-carboxamide] was below 0.1 µM. Same read-out and setting: to `CNc1cc(-c2ccn3c([C@H](C)N4CCN(CC(F)(F)F)CC4)c(C)c(C(=O)NCc4c(OC)cc(C)[nH]c4=O)cc23)ccn1` (single isomer, unassigned) [Compound 181, (S)—N-((4-methoxy-6-methyl-2-oxo-1,2-dihydropyridin-3-yl)methyl)-6-methyl-1-(2-(methylamino)pyridin-4-yl)-5-(1-(4-(2,2,2-trifluoroethyl)piperazin-1-yl)ethyl)indolizine-7-formamide or (R)—N-((4-methoxy-6-methyl-2-oxo-1,2-dihydropyridin-3-yl)methyl)-6-methyl-1-(2-(methylamino)pyridin-4-yl)-5-(1-(4-(2,2,2-trifluoroethyl)piperazin-1-yl)ethyl)indolizine-7-formamide] belongs below 0.1 µM.

Staying with this assay, now noted: read-out: IC50 (EZH2_Y641F); EZH2 Y641F PRC2 complex, HTRF; numeric values.
`COc1cc(C)[nH]c(=O)c1CNC(=O)c1cc2c(-c3ccn[nH]3)ccn2c(C(C)N2CCOCC2)c1C` (stereo not shown) [Compound 153, N-((4-Methoxy-6-methyl-2-oxo-1,2-dihydropyridin-3-yl)methyl)-6-methyl-5-(1-morpholinylethyl)-1-(1H-pyrazol-5-yl)indolizine-7-carboxamide]: the IC50 is 0.00215 µM.

In general, IC50 refers to the midpoint of a concentration-inhibition curve.
